Reference: article PMC7600788, “Sequence Permutation Generates Peptides with Different Antimicrobial and Antibiofilm Activities” (Pharmaceuticals, 2020)
No end group written: not given here.

What was measured:
A. baumannii B28-16 = format: cell-based, Acinetobacter baumannii; settings: B28-16
Method in brief: (§1)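 Broth microdilution: log-phase cultures diluted to OD600 ~0.001 were treated with two-fold peptide dilutions and incubated overnight at 37 °C, then read at 630 nm. MBC was the lowest concentration giving no growth when wells at or above MIC were plated.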

[1] = HPLC retention time measurement (reverse-phase C18); format: physicochemical
Method: The retention time of the peptide was measured on a Waters HPLC system equipped with an analytical reverse-phase WATERS C18 column (4.6 × 250 mm). The peptide detected at 220 and 280 nm was eluted with a gradient of acetonitrile (containing 1% TFA) from 5% to 95% at a flow rate of 1 mL/min [22].

E. coli ATCC 25922 = assay: Propidium iodide membrane permeation assay; format: cell-based, Escherichia coli; settings: peptide 3.1 µM, read every 5 min for 2 h
Method: Although not general, cationic antimicrobial peptides frequently target bacterial membranes. A fluorescence-based assay was performed for the determination the membrane active nature of peptides. A rapid increase in the fluorescence was detected as a consequence of peptide treatment at 3.1 µM, indicating membrane damage (Figure 3).
The experiment was performed as previously described with minor modifications. Serially diluted 10× peptides (10 μL each well) were created in 96-well microtiter plates. Propidium iodide (2 μL) at a fixed concentration of 20 μM was added to each well followed by 88 μL of the S. aureus USA300 or E. coli ATCC 25922 culture (a final OD600 ~0.1 in PBS). The plate was incubated at 37 °C with continuous shaking at 100 rpm in a FLUOstar Omega (BMG LABTECH Inc, Cary, NC, USA) microplate reader. The fluorescence from the plate was read every 5 min for a total duration of 2 h with excitation and emission wavelengths of 584 and 620 nm, respectively. Data were analyzed using the MARS data analysis software provided by the manufacturer and representative plots were made using the GraphPad Prism software (version: 7.0).

S. aureus Mu50 = format: cell-based, Staphylococcus aureus; settings: Mu50
Method in brief: as §1

E. faecium VRE = format: cell-based; settings: VRE
Method in brief: as §1

B. subtilis 167 = format: cell-based, Bacillus subtilis; settings: 167
Method in brief: as §1

[2] = test system: monkey kidney Vero E6 cells; format: cell-based
Method in brief: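 HaCaT cells and PMA-differentiated THP-1 macrophages (30 ng/mL PMA, 16 h) seeded at 3 × 10^4/well; Vero E6 cells grown in EMEM. Peptides applied at varying concentrations in serum-free medium for one hour. Viability read by MTS reduction (2 h, 37 °C), absorbance at 492 nm.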

S. aureus USA300 LAC = assay: Membrane depolarization, DiBAC4(3); format: cell-based, Staphylococcus aureus; settings: 12.5 µM
Method: Bacteria surfaces are negative and cationic peptides are able to neutralize the negative charge, thereby reducing membrane potential. To test this possibility, we evaluated the peptides against S. aureus USA300 LAC using a fluorescent indicator dye, the DiBAC4(3) (Figure 5).
The overnight culture of S. aureus USA300 LAC was grown in TSB media to the exponential phase. Cells were then pelleted and washed with PBS twice, and re-suspended in twice the volume of PBS containing 25 mM glucose for 15 min at 37 °C. For membrane depolarization measurements, 250 nM (final concentration) of the dye DiBAC4(3) (bis-(1,3-dibutylbarbituric acid) trimethine oxonol (ANASPEC, Fremont, CA, USA) was added, and vortexed gently. Ninety microliters of the energized bacteria solution were then added in a 96-well microtiter plate (Corning COSTAR). The plate was immediately placed into a FLUOstar Omega (BMG LABTECH Inc., Cary, NC, USA) microplate reader and fluorescence was measured for 20 min. Once the readings are stabilized, 10 μL of peptide solution were added and the fluorescence readings were continued for another 40 min. Measurements were done at an excitation and emission wavelengths of 485 and 520 nm, respectively. Triton X-100 (0.1%) was included as a positive control.

Sequence: RKIWWWWL [WW295]
- Minimal Inhibitory Concentration (MIC), AB (A. baumannii B28-16): 6.25 to 12.5 µM
- hydrophobicity implied by retention time (in words) ([1]; reverse-phase HPLC C18): slightly higher hydrophobicity
- HPLC (tr, min) ([1]; reverse-phase Waters C18 4.6 × 250 mm, acetonitrile (1% TFA) gradient 5% to 95%, 1 mL/min, detection 220 and 280 nm, taken as measure of hydrophobicity): 12.453 min
- propidium iodide fluorescence buildup (membrane permeation) (E. coli ATCC 25922): steady fluorescence buildup
- Minimal Inhibitory Concentration (MIC), SA (S. aureus Mu50): 12.5 µM
- Minimal Inhibitory Concentration (MIC), VRE (E. faecium VRE): 6.25 µM
- Minimal Inhibitory Concentration (MIC), BS (B. subtilis 167): 12.5 µM
- Vero Cells, concentration that caused 50% cell death (LC50) [2]: >100 µM
- membrane depolarization (DiBAC4(3) fluorescence) (S. aureus USA300 LAC): less active in depolarizing the membranes
